# Measurements taken from patent publication EP4640240A1, “PEPTIDE-BASED RADIOPHARMACEUTICALS FOR NON-INVASIVE IMAGING OF THE FUNCTIONAL LIVER RESERVE” (Medizinische Universität Innsbruck, priority 2024, dated 2025).
# Where two headings read alike, the source gives them in different places.
# How the values were obtained:
# [1] = Stability in human blood serum (radio-HPLC); type: in vitro ADME; settings: 37 °C
# Description: Ligand stability in human blood serum (n = 2) and PBS (pH = 6.5) (n = 1) was determined for different time points (2 min, 30 min, 60 min, 120 min). Therefore, approx. 5 MBq of radioligand was added to 1 mL of fresh human serum at 37 °C or PBS at rt. At each given time point 100 µL of the mixture were transferred to a 1.5 mL Eppendorf tube containing 100 µL of acetonitrile. The vial was vortexed and centrifuged for 2 min at 14,000 1/min before 100 µL of the supernatant were diluted with 200 µL of water and injected into analytical radio-HPLC. The PBS solution was directly injected into the radio-HPLC. Ligand stability was determined by integrating the areas of the signals in the radio chromatogram in relation to the signal of the intact ligand.
# [2] = Protein binding in human serum (MicroSpin G-50 columns); type: in vitro ADME; settings: fresh human serum, 37 °C, n=3
# Description: Protein binding was determined for different time points (2 min, 30 min, 60 min, 120 min) in triplicates using Sephadex MicroSpin G-50 columns (GE-Healthcare, Chicago, Illinois, USA). The columns were spun initially at 20,000 rcf for 1 min to remove the storage buffer. Then approx. 5 MBq of radioligand was added to 1 mL of fresh human serum and incubated at 37 °C. At each given timepoint 25 µL of the mixture was loaded on to the column, which was then spun at 20,000 rcf for 1 min. The activity content on the column (free radioligand) and in the filtrate (protein bound fraction) was quantified in a γ-counter.
# [3] = Partition coefficient logD (n-octanol/PBS); type: physicochemical; settings: n=6
# Description: For determination of logarithmic partition coefficients (logD) n-Octanol (500 µL) and PBS (500 µL) were pipetted into eight 1.5 mL Protein Low-Bind Eppendorf tubes followed by addition of 300 kBq of labelled compound. The vials were vortexed for 5 min at 1,500 1/min and then centrifuged for 5 min at 20,000 rcf (Eppendorf Centrifuge 5424). Aliquots of 100 µL were taken out of each phase and the amount of activity was quantified in a γ-counter (Perkin Elmer 2480 Wizard2 3"; Waltham, Massachusetts, USA).
# [4] = Biodistribution studies in BALB/c mice; type: in vivo; settings: for tissue uptake at 10 min / tissue uptake at 0.5 h / tissue uptake at 1 h: female, mouse, iv, total radioactivity, healthy BALB/c mice, 0.1 nmol i.v.; for tissue uptake at 10 min: 10 min p.i.; for tissue uptake at 0.5 h: 30 min p.i.; for tissue uptake at 1 h: 60 min p.i.
# Description: For biodistribution studies 6-week-old female BALB/c mice (n=3) were injected with 0.1 nmol (100 µL, approx. 1 MBq) of labelled compound via the lateral tail vein and sacrificed after 10, 30, or 60 min by cervical dislocation. The mice were dissected, blood and organs (spleen, pancreas, stomach, intestine, liver, kidney, heart, lung, muscle and bone) were weighed and their activity measured in a γ-counter. For blocking experiments, mice were co-injected with 27.7 µmοl N-acetylgalactose.
# [5] = BALB/c mice, comparison with ^99mTc-GSA
# [6] = Blood, read-out: Biodistribution data, Blood
# [7] = Femur, read-out: Biodistribution data, Femur
# [8] = Heart, read-out: Biodistribution data, Heart
# [9] = Intestine, read-out: Biodistribution data, Intestine
# [10] = Kidneys, read-out: Biodistribution data, Kidneys
# [11] = Liver, read-out: Biodistribution data, Liver
# [12] = Lung, read-out: Biodistribution data, Lung
# [13] = Muscle, read-out: Biodistribution data, Muscle
# [14] = Pancreas, read-out: Biodistribution data, Pancreas
# [15] = Spleen, read-out: Biodistribution data, Spleen
# [16] = Stomach, read-out: Biodistribution data, Stomach
smiles,measurement,setting,value
"NC(=O)CNC(=O)CNC(=O)[C@H](CCCCNC(=O)CCCCc1cn(C2O[C@H](CO)[C@H](O)[C@H](O)[C@H]2O)nn1)NC(=O)CNC(=O)CNC(=O)[C@H](CCCCNC(=O)CCCCc1cn(C2O[C@H](CO)[C@H](O)[C@H](O)[C@H]2O)nn1)NC(=O)CNC(=O)CNC(=O)[C@H](CCCCNC(=O)CCCCc1cn(C2O[C@H](CO)[C@H](O)[C@H](O)[C@H]2O)nn1)NC(=O)CNC(=O)CNC(=O)[C@H](CCCCNC(=O)CCCCc1cn(C2O[C@H](CO)[C@H](O)[C@H](O)[C@H]2O)nn1)NC(=O)CNC(=O)CNC(=O)[C@H](CCCCNC(=O)CCCCc1cn(C2O[C@H](CO)[C@H](O)[C@H](O)[C@H]2O)nn1)NC(=O)CNC(=O)CNC(=O)[C@H](CCCCNC(=O)CCCCc1cn(C2O[C@H](CO)[C@H](O)[C@H](O)[C@H]2O)nn1)NC(=O)CNC(=O)CNC(=O)[C@H](CCCCNC(=O)CCCCc1cn(C2O[C@H](CO)[C@H](O)[C@H](O)[C@H]2O)nn1)NC(=O)CNC(=O)CNC(=O)[C@H](CCCCNC(=O)CCCCc1cn(C2O[C@H](CO)[C@H](O)[C@H](O)[C@H]2O)nn1)NC(=O)CNC(=O)CNC(=O)[C@H](CCCCNC(=O)CCCCc1cn(C2O[C@H](CO)[C@H](O)[C@H](O)[C@H]2O)nn1)NC(=O)CCCNC(=O)CC[C@H](C(=O)O)N1CCN(CC(=O)O)CCN(CC(=O)O)CC1 (some centres unmarked) [[68Ga]Ga-NonaLysan, metal not drawn]",remaining at 2 min,"[1]; 2 min, n=2, read-out: Serum stability (% of intact ligand)",99.5 ± 0.1%
same,remaining at 0.5 h,"[1]; 30 min, n=2, read-out: Serum stability (% of intact ligand)",99.5 ± 0.1%
same,Serum stability (% of intact ligand),"[1]; 60 min, n=2",99.5 ± 0.1%
same,remaining at 2 h,"[1]; 120 min, n=2, read-out: Serum stability (% of intact ligand)",99.6%
same,fraction unbound,[2]; 2 min,0.847
same,fraction unbound,[2]; 30 min,0.717
same,fraction unbound,[2]; 60 min,0.737
same,fraction unbound,[2]; 120 min,0.785
same,logD,[3],-4.06 ± 0.09
same,activity accumulation in the liver (in words),[4]; [5],outperforms the accumulation in the liver found for the gold standard ^99mTc-GSA
same,activity concentration in the intestine (in words),[4]; [5],activity concentration is lower as found for ^99mTc-GSA
same,tissue uptake at 10 min,[4]; [6],0.43 ± 0.03 %ID/g
same,tissue uptake at 0.5 h,[4]; [6],0.15 ± 0.04 %ID/g
same,tissue uptake at 1 h,[4]; [6],0.22 ± 0.05 %ID/g
same,tissue uptake at 10 min,[4]; [7],0.26 ± 0.02 %ID/g
same,tissue uptake at 0.5 h,[4]; [7],0.26 ± 0.08 %ID/g
same,tissue uptake at 1 h,[4]; [7],0.23 ± 0.01 %ID/g
same,tissue uptake at 10 min,[4]; [8],0.44 ± 0.04 %ID/g
same,tissue uptake at 0.5 h,[4]; [8],0.44 ± 0.04 %ID/g
same,tissue uptake at 1 h,[4]; [8],0.52 ± 0.07 %ID/g
same,tissue uptake at 10 min,[4]; [9],0.77 ± 0.17 %ID/g
same,tissue uptake at 0.5 h,[4]; [9],5.61 ± 0.22 %ID/g
same,tissue uptake at 1 h,[4]; [9],7.91 ± 0.49 %ID/g
same,tissue uptake at 10 min,[4]; [10],1.16 ± 0.12 %ID/g
same,tissue uptake at 0.5 h,[4]; [10],0.83 ± 0.03 %ID/g
same,tissue uptake at 1 h,[4]; [10],0.99 ± 0.15 %ID/g
same,tissue uptake at 10 min,[4]; [11],71.23 ± 0.43 %ID/g
same,tissue uptake at 0.5 h,[4]; [11],79.6 ± 7.96 %ID/g
same,tissue uptake at 1 h,[4]; [11],69.6 ± 0.98 %ID/g
same,tissue uptake at 10 min,[4]; [12],0.85 ± 0.1 %ID/g
same,tissue uptake at 0.5 h,[4]; [12],0.7 ± 0.08 %ID/g
same,tissue uptake at 1 h,[4]; [12],0.92 ± 0.1 %ID/g
same,tissue uptake at 10 min,[4]; [13],0.61 ± 0.07 %ID/g
same,tissue uptake at 0.5 h,[4]; [13],0.66 ± 0.03 %ID/g
same,tissue uptake at 1 h,[4]; [13],0.59 ± 0.09 %ID/g
same,tissue uptake at 10 min,[4]; [14],0.75 ± 0.07 %ID/g
same,tissue uptake at 0.5 h,[4]; [14],0.91 ± 0.05 %ID/g
same,tissue uptake at 1 h,[4]; [14],1.16 ± 0.19 %ID/g
same,tissue uptake at 10 min,[4]; [15],0.57 ± 0.16 %ID/g
same,tissue uptake at 0.5 h,[4]; [15],0.17 ± 0.03 %ID/g
same,tissue uptake at 1 h,[4]; [15],0.49 ± 0.03 %ID/g
same,tissue uptake at 10 min,[4]; [16],0.73 ± 0.16 %ID/g
same,tissue uptake at 0.5 h,[4]; [16],1.15 ± 0.44 %ID/g
same,tissue uptake at 1 h,[4]; [16],1.78 ± 0.98 %ID/g
